Measured values from patent US11199553B2, “25-OH vitamin D derivatives for determining vitamin D metabolites” (ORGENTEC D[…], priority 2013, dated 2021).

System: 25OHD antibody
Details: even at a 25OHD3 concentration of 5 ng/ml; 7.5 ng/ml tracer; vitamin D-free serum matrix; OD 450 nm
Procedure: For the ELISA detection of the specific 25OHD competition, 80 μl of vitamin D release reagent were added to serial dilutions of 25OHD3 in vitamin D-free serum matrix (SerCon, Seracare Inc.) in concentrations of 0, 5, 10, 20, 20, 50, 100, 200, 300 ng/ml in the presence of 7.5 ng/ml of biotin-25OHD tracer reagent and applied to microtitre plate wells coated with an anti-25OHD antibody. The binding of the tracer on the basis of the competing 25OHD concentration was determined with peroxidase-labelled streptavidin and a tetramethylbenzidine (TMB) colour reaction by measuring the OD 450 nm.
An antibody against 25-OH-vitamin D3 or 25-OH-vitamin D2 was diluted in Tris-buffered saline pH 8.0 to a concentration of 1 μg/ml. The wells of a microtitre plate (Maxisorb, Nunc) were coated with 100 μl of the diluted antibody, dried at 37° C. and stored at 4° C. until the test was carried out.
Defined concentrations of 25-OHD3 were added to vitamin D-free serum matrix (Seracon, Seracare Inc.). […] The antibody-bound biotin-25OHD tracer was detected with peroxidase-labelled streptavidin and a tetramethylbenzidine (TMB) colour reaction. After the substrate reaction had been stopped by addition of 100 μl of 50 mM phosphoric acid, the optical density was measured at 450 nm.

Substance: 3α-[α-biotinamido-ω-dodeca(ethylene glycol)-amido]-25-hydroxy-deoxyvitamin D3 [VD1]
- competition of the tracer by 25OHD3 for binding sites on the 25OHD antibody: specific competition
